Tests used:
human α-synuclein = assay: Human α-synuclein clearance in A53T transgenic mice; format: in vivo, mouse; details: i.p., 18 mg/kg/day, p=0.01 vs vehicle-treated A53T mice
Description: (§1) FIG. 4. Enhancing lysosome efficiency with the cathepsin B modulator PADK leads to reductions of multiple types of proteinopathy-related accumulation events. […] Age-matched wild-type mice (wt) and 9-10-month mutant human APP mice, a model of early dementia, treated with or without PADK were assessed for the 4-kDa Δβ peptide, the active form of cathepsin B (act CB), and other proteins in hippocampal samples (C). Similar treatment groups used another APP mouse model at 20-22 months of age to measure clearance of APP carboxyterminal fragments APP-αCTF and APP-βCTF (D). Rat hippocampal slice cultures from the untreated control group (con) and slices treated with submicromolar Δβ42 (early tauopathy model) in the absence or presence of PADK (5 μM for 4 days) were assessed for phosphorylated tau (pTau) and other proteins (E). For a model of early α-synucleinopathy, human A53T α-synuclein transgenic mice, at 7 months old, were studied with or without PADK treatment and assessed for human α-synuclein (α-syn) in TX-100 extracts of hippocampus and for other proteins in hippocampal homogenates (F). Plotted data (±SEM) were compared to neighboring vehicle groups by unpaired t-tests: *p=0.02, **p<0.01, ***p<0.001. APPswind and APP-PS1 mice are described in Butler et al., (2011), the entire content of which is hereby incorporated herein by reference.
FIG. 6. […]

rats = assay: Adverse effect observation after oral dosing in rats; format: in vivo, rat; details: 15 mg/kg twice a day, 10 days
active cathepsin = biological target: T1, active cathepsin (Mus musculus, UniProt P10605); assay: Active cathepsin in brain samples of PADK-injected C57BL/6 mice; format: in vivo; details: ip daily for 9 days
T1 construct: from tissue; host or cells: brain and CNS regions of mice (PADK-treated mice, A53T transgenic and wild-type mice, C57BL/6 mice)
T1 sequence (P10605 80-333 limits assumed): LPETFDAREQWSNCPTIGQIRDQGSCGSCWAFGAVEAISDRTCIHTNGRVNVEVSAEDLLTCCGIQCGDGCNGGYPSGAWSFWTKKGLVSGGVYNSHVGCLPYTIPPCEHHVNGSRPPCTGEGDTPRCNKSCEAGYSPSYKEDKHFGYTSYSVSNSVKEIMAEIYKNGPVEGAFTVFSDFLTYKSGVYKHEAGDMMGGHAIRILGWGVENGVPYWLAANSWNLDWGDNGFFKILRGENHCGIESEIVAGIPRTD

[1] = biological target: T2, active form of cathepsin B (Mus musculus, UniProt P10605); assay: Active cathepsin B immunoblot in CNS regions of A53T α-synuclein transgenic mice; format: in vivo; details: i.p., 18 mg/kg/day
T2 construct: from tissue; host or cells: brain and CNS regions of mice (PADK-treated mice, A53T transgenic and wild-type mice, C57BL/6 mice)
T2 sequence (P10605 80-333 limits assumed): as above
Description: as §1
FIG. 6. […]

[2] = biological target: T3, 30-kDa active form of cathepsin B (Rattus norvegicus, UniProt P00787); assay: Active cathepsin B immunoblot in brain, eye and skin after oral dosing in rats; format: in vivo
T3 construct: assessed by immunoblot to label the 30-kDa active form of cathepsin B; from tissue; host or cells: Fischer rat brain regions (A5); rat brain regions, eye and skin after oral dosing (A18); rat organotypic heart slice cultures (A17)
T3 sequence (P00787 80-333 limits assumed): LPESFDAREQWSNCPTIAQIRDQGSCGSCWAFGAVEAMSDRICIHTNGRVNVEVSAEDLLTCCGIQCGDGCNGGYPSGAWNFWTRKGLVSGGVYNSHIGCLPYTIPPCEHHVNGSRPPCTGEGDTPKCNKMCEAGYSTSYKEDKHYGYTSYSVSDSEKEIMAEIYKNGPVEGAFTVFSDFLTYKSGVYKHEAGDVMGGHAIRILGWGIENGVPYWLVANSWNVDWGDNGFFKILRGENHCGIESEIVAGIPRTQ
Description: FIG. 10. The modulatory compound PADK up-regulates active cathepsin B in brain, eyes, and skin after oral dosing in rats. […] Four different brain regions were dissected and homogenates prepared, and equal protein aliquots were assessed by immunoblot to label the 30-kDa active form of cathepsin B (FC=frontal cortex).

active cathepsin B = biological target: T4, active cathepsin B (Homo sapiens, UniProt P07858); assay: Active cathepsin B staining in human neuronal cultures; format: cell-based; details: 10 μM for 3 days, vs control compound Z-FA
T4 construct: endogenous in cells

APP-αCTF and APP-βCTF = assay: Clearance of APP carboxyterminal fragments in APP mouse model; format: in vivo; details: PADK-treated transgenic mice, 20-22 months; correlated with augmented active CatB
Description: as §1, with “reference. […]” for “reference.”

cathepsin B = assay: Cathepsin B species immunoblot in heart tissue of A53T mice; format: in vivo, mouse
Description: FIG. 8. PADK also enhances cathepsin B species in the heart. The A53T early α-synucleinopathy mouse model was injected daily with vehicle or PADK (i.p., 18 mg/kg/day) to test for changes in heart tissue. […] Positions of molecular weight standards (kDa) are shown on the left side of the immunoblot. (B) In the lower graph, ratios between CB-30 and CB-105 (mean±SEM) provide a good example of the unique PADK effect on cathepsin B species in the heart. **P<0.01 as compared to vehicle-treated A53T mice.
Ratio measures between the 30-kDa form and the 105-kDa species indicate a unique PADK effect on cathepsin B species in the heart (FIG. 8 bar graph).

[3] = oral, peanut butter mixture, 15 mg/kg twice a day, 10 days

SMILES: C[C@H](NC(=O)[C@H](Cc1ccccc1)NC(=O)OCc1ccccc1)C(=O)C=[N+]=[N-] [PADK, N-carbobenzyloxy-L-phenylalanyl-L-alanyl-diazomethylketone]
- human α-synuclein levels (human α-synuclein): decrease
- adverse effects during behavioral tests (rats): no evidence of adverse effects
- active cathepsin in brain samples (active cathepsin): dose-dependent increase
- active CatB levels increase in brains ([1]; 7-8 months): 3-6 fold
- active form of cathepsin B across CNS regions (immunoblot) ([1]; 7 months, p<0.02 vs vehicle-treated tg): robust PADK-mediated increase
- BBB crossing after oral dosing ([2]; inferred from enhanced active cathepsin B in brain regions after 10 days of 15 mg PADK/kg/0.5 day): crossing the BBB
- active cathepsin B in brain [2, 3]: up-regulate
- active cathepsin B in eye tissue [2, 3]: significant increases
- active cathepsin B in skin tissue [2, 3]: significant increases
- levels of active cathepsin B (active cathepsin B): increased levels of active cathepsin B
- APP carboxy-terminal fragments (αCTF and βCTF) (APP-αCTF and APP-βCTF): reductions
- high molecular weight cathepsin B species (CB-80, CB-85, CB-105) in heart (cathepsin B; A53T mice, i.p., 18 mg/kg/day): returned the high molecular weight species to near normal levels
- ratio between active cathepsin B form of 30 kDa and the precursor of >100 kDa (cathepsin B; heart tissue, p<0.01 vs vehicle-treated A53T mice): enhances the ratio
